Some test systems named below: A498 renal; CAKI-1 renal; EKVX NSCLC; MALME-3M melanoma; MCF7 breast; MDA-MB-435; MOLT-4 leukemia; OVCAR-3 ovarian; SK-MEL-28 melanoma; SK-OV-3 ovarian.
Common to all, as to assay: NCI tumour cell line growth inhibition, 48 h

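96-well plates; 48 h exposure; 5 concentrations. Endpoints by linear interpolation between flanking doses. Not reached: highest tested concentration assigned. Definition used: TGI = concentration required for complete inhibition of growth.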

As to `COC(=O)[C@]1(c2cc3ccccc3[nH]2)CC2CN(C(=O)OCc3ccccc3)C1CC2=O` (stereo not given in full), the TGI in the assay with A498 renal was 42.9 µM; with CAKI-1 renal it was more than 100 µM; in the assay with EKVX NSCLC, 43.7 µM; in the assay with MALME-3M melanoma, 56.4 µM; in the assay with MCF7 breast, 35.5 µM; in the assay on MDA-MB-435 it was more than 100 µM. The TGI with MOLT-4 leukemia was 32.6 µM; with OVCAR-3 ovarian, more than 100 µM; in the assay on SK-MEL-28 melanoma, more than 100 µM; with SK-OV-3 ovarian, more than 100 µM.
With `CN1CCc2c(sc3ncn(Nc4ccc(Cl)cc4)c(=N)c23)C1`, the TGI in the assay with A498 renal, with CAKI-1 renal, in the assay with EKVX NSCLC, with MALME-3M melanoma, with MCF7 breast and with MDA-MB-435 was more than 100 µM in each case. The TGI with MOLT-4 leukemia, in the assay on OVCAR-3 ovarian, in the assay with SK-MEL-28 melanoma and in the assay on SK-OV-3 ovarian was more than 100 µM in each case.
On to `Cc1c(C)c(C)c(-n2c(=O)n(C)c(=O)n2-c2cc(C(C)(C)C)cc(C(C)(C)C)c2O)c(C)c1C`, for which the TGI in the assay on A498 renal worked out at 26.3 µM; in the assay on CAKI-1 renal it was 28.5 µM; in the assay on EKVX NSCLC, 22.8 µM; in the assay on MALME-3M melanoma, 24.9 µM; in the assay on MCF7 breast it was 16.6 µM; with MDA-MB-435 it was 27.2 µM. Also, the TGI amounted to 19.3 µM in the assay with MOLT-4 leukemia, 19.3 µM in the assay with OVCAR-3 ovarian, 28 µM in the assay with SK-MEL-28 melanoma and 25.2 µM with SK-OV-3 ovarian.
As to `O=[N+]([O-])c1cc2ccc(N(CCO)CCO)nc2nc1N(CCO)CCO`, the TGI in the assay on A498 renal, in the assay on CAKI-1 renal, with EKVX NSCLC, in the assay with MALME-3M melanoma, in the assay on MCF7 breast and in the assay on MDA-MB-435 was more than 100 µM in each case. For the same compound, the TGI with MOLT-4 leukemia, with OVCAR-3 ovarian, in the assay with SK-MEL-28 melanoma and in the assay with SK-OV-3 ovarian was more than 100 µM throughout.
In the case of `Cc1ccc(S(=O)(=O)N/N=C2\CC3CC4CCC2C4C3)cc1` (stereo not given), the TGI with A498 renal, with CAKI-1 renal, in the assay with EKVX NSCLC, with MALME-3M melanoma, with MCF7 breast and in the assay on MDA-MB-435 was more than 100 µM throughout. The TGI in the assay on MOLT-4 leukemia, in the assay with OVCAR-3 ovarian, with SK-MEL-28 melanoma and in the assay with SK-OV-3 ovarian was more than 100 µM each time.
As for `CCCCCCCCP(=O)(O)OP(=O)(O)OCC1OC(n2ccc(N)nc2=O)C(O)C1O` (stereo not given), the TGI in the assay with A498 renal, with CAKI-1 renal, with EKVX NSCLC, in the assay on MALME-3M melanoma, in the assay on MCF7 breast and in the assay with MDA-MB-435 was more than 100 µM in each case. Further, the TGI in the assay on MOLT-4 leukemia, in the assay on OVCAR-3 ovarian, in the assay with SK-MEL-28 melanoma and with SK-OV-3 ovarian was more than 100 µM throughout.
With `O[C@@H]1CCC[C@@H]2NC[C@@H](c3ccc4c(c3)OCO4)[C@H]12`, the TGI in the assay on A498 renal, in the assay on CAKI-1 renal, in the assay with EKVX NSCLC, with MALME-3M melanoma, in the assay on MCF7 breast and in the assay on MDA-MB-435 was more than 100 µM in each case. For the same compound, the TGI in the assay with MOLT-4 leukemia, with OVCAR-3 ovarian, with SK-MEL-28 melanoma and in the assay on SK-OV-3 ovarian was more than 100 µM throughout.
`CCSc1nc(=S)n(-c2ccccc2)c(C)c1C(C)=O`: the TGI in the assay with A498 renal, with CAKI-1 renal, in the assay with EKVX NSCLC, with MALME-3M melanoma, in the assay with MCF7 breast and with MDA-MB-435 was more than 100 µM throughout. Further, the TGI with MOLT-4 leukemia, with OVCAR-3 ovarian, with SK-MEL-28 melanoma and in the assay with SK-OV-3 ovarian was more than 100 µM in each case.
As to `S=c1nc(N/N=C/c2cccs2)c2cn[nH]c2[nH]1`, the TGI in the assay on A498 renal was more than 100 µM; in the assay with CAKI-1 renal, 42.9 µM; in the assay with EKVX NSCLC it was more than 100 µM; with MALME-3M melanoma, more than 100 µM; in the assay on MCF7 breast, 28.3 µM; in the assay with MDA-MB-435, 51.9 µM. In addition, the TGI in the assay with MOLT-4 leukemia was 66 µM; with OVCAR-3 ovarian it was 34.1 µM; in the assay on SK-MEL-28 melanoma, more than 100 µM; in the assay on SK-OV-3 ovarian, more than 100 µM.
With `Cc1cc(S(=O)(=O)Nc2nncn2-c2ccc(Cl)cc2)c(S)cc1Cl`, the TGI in the assay on A498 renal, in the assay with CAKI-1 renal, in the assay on EKVX NSCLC, in the assay with MALME-3M melanoma, with MCF7 breast and in the assay with MDA-MB-435 was more than 10 µM in each case. Besides, the TGI with MOLT-4 leukemia, in the assay with OVCAR-3 ovarian, with SK-MEL-28 melanoma and in the assay with SK-OV-3 ovarian was more than 10 µM throughout.
For `CN(CCCNC(=O)c1nn(C)c2c1Cc1ccccc1-2)CCCNC(=O)c1nn(C)c2c1Cc1ccccc1-2`, the TGI is 31.7 µM in the assay with A498 renal; 35.5 µM in the assay on CAKI-1 renal; 39.2 µM with EKVX NSCLC; 37.2 µM with MALME-3M melanoma; 31.2 µM in the assay with MCF7 breast; 27 µM in the assay on MDA-MB-435. The TGI with MOLT-4 leukemia was determined as 24.4 µM; in the assay with OVCAR-3 ovarian, 38 µM; in the assay with SK-MEL-28 melanoma it was 38.2 µM; in the assay with SK-OV-3 ovarian it was 34.1 µM.
